Data published in PMC7287031 (Pharmacology Research & Perspectives, 2020).

Assays:
[1] = Dog ADME study: excretion, mass balance, metabolite profiling with radiolabeled ribociclib; format: in vivo
Procedure: (§1) ADME studies (including QWBA in pigmented and non‐pigmented rats) using radiolabeled ribociclib were conducted in rat and dog. Relevant institutional and national guides for the care and use of laboratory animals were followed.
(§2) Metabolite profiling was conducted on plasma, urine, bile, and feces samples in the rat and dog ADME studies, and further metabolite profiling on plasma and milk was conducted in a dedicated rat milk excretion study.
(§3) Plasma samples obtained from these studies were extracted with equal volumes of acetonitrile. Additional extractions of the protein pellet with acetonitrile and/or acetone were conducted as needed to maximize radioactivity recovery. Feces samples were initially extracted with two to four volumes of acetonitrile. Additional extractions of the pellet following centrifugation and removal of supernatant were conducted with acetonitrile and/or acetone as needed to maximize radioactivity recovery. Urine and bile samples were analyzed directly following centrifugation. Radioactivity recoveries following the centrifugation step were measured by LSC. Milk samples were extracted with two volumes of acetonitrile, following centrifugation and removal of supernatant, the pellets were re‐suspended in 100 µL of water and re‐extracted with 200 µL acetonitrile.
(§4) Metabolite profiling in the ADME studies was conducted using liquid chromatography‐mass spectrometry. Radioactivity profiles were generated by diversion of the majority of the post‐column flow into 96‐well yttrium silicate scintillation‐coated plates (Deepwell Lumaplates; Perkin Elmer Life and Analytical Sciences Inc), by means of Gilson FC204 fraction collectors (Gilson). Metabolites were identified by mass spectrometry (Waters QTOF operating under MassLynx 4.1) and, where feasible, by comparison with authentic reference standards.

[2] = design: method as in earlier work; details: humans, total of central and peripheral volume; ref 22 (Lu et al, manuscript submitted); cited from earlier work
human liver microsomes = assay: Kinetic analysis of ribociclib metabolite formation in HLM and enzyme contribution; format: in vitro ADME; details: metabolite formation kinetics
Procedure: (§5) In vitro incubations were carried out in 100‐mM potassium phosphate buffer (pH 7.4) and 5‐mM MgCl2 with a total volume of 200 µL. Substrate and either human liver microsomes (HLM, BD Biosciences, mixed gender pool of n = 50) or recombinant human enzymes (BD Biosciences) were added and pre‐incubated for 3 minutes at 37°C. The reaction was started by addition of a fresh solution of NADPH (1 mmol/L final concentration). The samples were incubated at 37°C with agitation of 500 rpm. For incubations with CYP2A6, CYP2C9, CYP2C18, and CYP4A11, the phosphate buffer was replaced by TRIS buffer (100 mmol/L, pH 7.4) and for flavin‐containing monooxygenases (FMOs), a glycine buffer (50 mM, pH 9.5) was used.
(§6) The enzymatic reaction was stopped and the protein was precipitated by addition of an equal volume of methanol. […] The supernatant was withdrawn. Aliquots were analyzed by LSC and the supernatant was diluted with water to obtain a final solution containing less than 20% of the organic solvent. For samples of low substrate concentration, supernatants were evaporated to dryness under nitrogen, then re‐suspended in water containing less than 20% of methanol. Samples were analyzed by HPLC combined with radiodetection.
Km and Vmax parameters were calculated by using SigmaPlot Version 8.0, Enzyme Kinetics module Version 1.1 software (SPSS Science Inc, Chicago, IL, USA). The intrinsic clearance was calculated by the equation: CLint = Vmax/Km.
The intrinsic clearances (Vmax/Km) of each pathway were determined by enzyme kinetics.

[3] = Rat ADME study: excretion, mass balance, metabolite profiling with radiolabeled ribociclib; format: in vivo
Procedure: as §1, §2, §3, §4

CYP3A4 = target: T1, CYP3A4 (Homo sapiens, UniProt P08684); assay: Enzyme kinetics with recombinant CYP3A4 and scaling to HLM; format: in vitro ADME
T1 construct: purchased BD Biosciences
Procedure: as §5, §6

[4] = system: recombinant human CYPs and FMOs; assay: Biotransformation by a panel of 17 recombinant human CYPs and three FMOs; format: in vitro ADME
Procedure: as §5
(§7) The enzymatic reaction was stopped and the protein was precipitated by addition of an equal volume of methanol. After 30 min at −80°C, the samples were centrifuged at 30'000 x g for 15 min. The supernatant was withdrawn. Aliquots were analyzed by LSC and the supernatant was diluted with water to obtain a final solution containing less than 20% of the organic solvent. For samples of low substrate concentration, supernatants were evaporated to dryness under nitrogen, then re‐suspended in water containing less than 20% of methanol. Samples were analyzed by HPLC combined with radiodetection.
(§8) The relative contribution of CYP enzymes to oxidative hepatic metabolism was determined using their Clint values multiplied by the unbound fraction in microsomes and their abundances in human liver microsomes. ^15 Among the hepatic P450 enzymes, CYP3A4 contributed predominantly (97%) to metabolism in human liver microsomes (Table 1) with negligible fraction metabolized by CYP1A2 (1.1%), CYP2J2 (0.8%), and CYP3A5 (1.2%).

[5] = system: hepatic P450 isoenzymes (total); assay: as above; format: in vitro ADME; details: human, recombinant human CYPs, scaled to human liver microsomes, pH 7.4; sum over CYPs, based on recombinant enzyme data; read-out: Rel.Clint,u in HLM, total of hepatic P450 isoenzymes
Procedure: as §5, §7, §8

CYP2J2 = target: T2, CYP2J2 (Homo sapiens, UniProt P51589); assay: Enzyme kinetics with recombinant CYP2J2 and scaling to HLM; format: in vitro ADME
T2 construct: purchased BD Biosciences
T2 sequence (P51589 1-502): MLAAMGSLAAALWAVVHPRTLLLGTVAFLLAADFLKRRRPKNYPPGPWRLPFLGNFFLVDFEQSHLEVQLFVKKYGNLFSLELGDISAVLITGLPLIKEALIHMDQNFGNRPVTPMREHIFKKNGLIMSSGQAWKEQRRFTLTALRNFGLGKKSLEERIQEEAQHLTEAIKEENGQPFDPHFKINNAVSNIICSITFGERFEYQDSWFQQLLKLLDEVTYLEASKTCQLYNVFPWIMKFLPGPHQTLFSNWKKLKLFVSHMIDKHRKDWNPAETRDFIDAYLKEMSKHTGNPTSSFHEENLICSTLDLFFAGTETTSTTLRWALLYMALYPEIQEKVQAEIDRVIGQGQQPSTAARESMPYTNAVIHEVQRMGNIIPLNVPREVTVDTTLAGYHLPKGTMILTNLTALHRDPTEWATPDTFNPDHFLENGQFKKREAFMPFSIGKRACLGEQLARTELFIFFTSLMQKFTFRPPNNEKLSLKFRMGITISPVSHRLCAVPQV
Procedure: as §5
The enzymatic reaction was stopped and the protein was precipitated by addition of an equal volume of methanol. After 30 min at −80°C, the samples were centrifuged at 30'000 x g for 15 min. The supernatant was withdrawn. Aliquots were analyzed by LSC and the supernatant was diluted with water to obtain a final solution containing less than 20% of the organic solvent. For samples of low substrate concentration, supernatants were evaporated to dryness under nitrogen, then re‐suspended in water containing less than 20% of methanol. Samples were analyzed by HPLC combined with radiodetection. […]

[6] = oral dosing of radiolabeled ribociclib
[7] = rat, oral dosing of radiolabeled ribociclib

T1 sequence (P08684 whole entry): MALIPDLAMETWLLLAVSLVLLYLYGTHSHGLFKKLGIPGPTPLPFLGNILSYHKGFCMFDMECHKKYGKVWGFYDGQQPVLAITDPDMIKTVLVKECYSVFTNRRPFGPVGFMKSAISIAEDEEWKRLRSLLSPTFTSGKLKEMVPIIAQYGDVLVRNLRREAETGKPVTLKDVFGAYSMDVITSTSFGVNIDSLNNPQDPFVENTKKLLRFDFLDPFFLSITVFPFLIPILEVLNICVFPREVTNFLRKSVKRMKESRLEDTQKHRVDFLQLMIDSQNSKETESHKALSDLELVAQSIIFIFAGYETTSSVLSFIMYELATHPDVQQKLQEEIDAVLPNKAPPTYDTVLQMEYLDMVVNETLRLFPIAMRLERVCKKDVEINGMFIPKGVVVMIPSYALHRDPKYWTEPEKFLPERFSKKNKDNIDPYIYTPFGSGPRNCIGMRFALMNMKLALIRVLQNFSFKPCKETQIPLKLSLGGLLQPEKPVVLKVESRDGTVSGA

CN(C)C(=O)c1cc2cnc(Nc3ccc(N4CCNCC4)cn3)nc2n1C1CCCC1 [ribociclib, Ribociclib]
Recovery of radioactivity in mass balance study [1]: approximately 90% | radioactivity found in feces [1, 6]: 68.8% | radioactivity found in urine [1, 6]: 18.5% | ribociclib in feces ([1]; p.o.): 10.7 % of the oral dose | unchanged ribociclib in urine ([1]; p.o.): 13.4 % of the dose | apparent volume of distribution at steady state [2]: 1090 L | fm (Rel. Clint), CYP3A4 share of oxidative metabolism in HLM (human liver microsomes): 74% | fm (Rel. Clint), FMO3 / hepatic FMO share of oxidative metabolism in HLM (human liver microsomes): 26% | Recovery of radioactivity in mass balance study ([3]; rat): approximately 90% | Absorption ([3]; rat ADME study, derived from AUC of total radiolabeled components after i.v. and p.o. dosing): 66% | dose eliminated in bile (radioactivity) ([3]; rat, i.v.): 61.4 % of dose | ribociclib in feces of bile duct-cannulated rats ([3]; rat, i.v.): 8 % of the dose | unchanged ribociclib recovered in bile ([3]; rat, i.v.): 1 % of the dose | radioactivity found in feces [3, 7]: 84.0% | radioactivity found in urine [3, 7]: 5.9% | ribociclib in feces ([3]; rat, p.o.): 22.4 % of the oral dose | unchanged ribociclib in urine ([3]; rat, p.o.): 2.7 % of the dose | fm,CYP (CYP3A4; CYP3A4, share of total CYP-mediated metabolism in HLM): 97% | fumic (CYP3A4; CYP3A4 incubation): 0.83 | Vmax (CYP3A4; recombinant CYP3A4, substrate inhibition model): 12.3 ± 5.2 pmol/min/pmol | turnover by recombinant enzymes ([4]; CYP1A2, CYP3A5, FMO3, and FMO5, 0.75 and 20 µmol/L, 15 min): Low metabolic activities | turnover by recombinant enzymes ([4]; CYP1B1, CYP2A6, CYP2B6, CYP2C8, CYP2C9, CYP2C18, CYP2C19, CYP2D6, CYP2E1, CYP4A11, and CYP4F2): No metabolic activities were detected | turnover by recombinant enzymes ([4]; CYP3A4, CYP2J2, CYP1A1, FMO1, and FM03, 0.75 and 20 µmol/L, 15 min): high turnover | microsomal CLint [5]: 49.2 µL/min/mg | fm,CYP (CYP2J2; CYP2J2, share of total CYP-mediated metabolism in HLM): 0.8% | fumic (CYP2J2; CYP2J2 incubation): 0.86
